Experimental data from US4468511A, “C-20- And C-23-Modified macrolide derivatives” (Eli Lilly and Company, priority 1983, dated 1984).
Values after ≈ are worked out from the molar mass of the structure shown. Where two headings read alike, the source gives them in different places.

What was measured:
Pasteurella multocida = test: Pasteurella infection in one-day old chicks; format: in vivo; conditions: subcutaneous, 30 mg/kg × 2, 1 and 4 hours post-challenge
Protocol: Certain of the formula 1 compounds of this invention have also shown in vivo activity against infections induced by gram-negative bacteria. Table V summarizes the results of tests in which illustrative compounds were evaluated against a Pasteurella infection in one-day old chicks. The compounds were administered parenterally after challenge of the chicks with Pasteurella multocida (0.1 ml of a 10^-4 dilution of a twenty-hour tryptose broth culture of an avian P. multocida given subcutaneously). In these tests, unless indicated otherwise, all non-medicated infected chicks died within 24 hours of Pasteurella challenge. In the tests summarized in Table V, the compounds were administered by subcutaneous injection at a dosage of 30 mg/kg, 1 and 4 hours post-challenge of the chicks with P. multocida.

[1] = test system: Staphylococcus aureus S13E; test: microbe, parasite or virus in culture; format: cell-based
Protocol: (§1) The MIC's in Table II were determined by standard agar-dilution assays. The MIC's in Table III were obtained using a conventional broth-dilution microtiter test.

[2] = test system: Staphylococcus epidermidis EPI1; test: microbe, parasite or virus in culture; format: cell-based; conditions: Staphylococcus epidermidis, EPI1
Protocol: as §1

[3] = test system: Haemophilus influenzae 76; test: MIC, standard agar-dilution assay; format: cell-based; conditions: agar-dilution; Haemophilus influenzae 76, Ampicillin-resistant strain; read-out: MIC
Protocol: as §1

[4] = test system: Haemophilus influenzae C.L.; test: MIC, standard agar-dilution assay; format: cell-based
Protocol: as §1

[5] = test system: Staphylococcus aureus X400; test: MIC, standard agar-dilution assay; format: cell-based
Protocol: as §1

[6] = test system: Staphylococcus epidermidis EPI2; test: MIC, standard agar-dilution assay; format: cell-based
Protocol: as §1

Escherichia coli EC14 = test: MIC, standard agar-dilution assay; format: cell-based
Protocol: (§2) Certain of the derivatives are active against some gram-negative bacteria, such as Pasteurella species. The MIC's in Table II were determined by standard agar-dilution assays. The MIC's in Table III were obtained using a conventional broth-dilution microtiter test.

[7] = test system: Klebsiella pneumoniae X26; test: MIC, standard agar-dilution assay; format: cell-based
In short: (§3)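 Agar plates containing graded compound levels gave the Klebsiella value. Graded broth dilutions in microtiter plates gave the Pasteurella and Mycoplasma values.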

[8] = test system: Staphylococcus aureus V41; test: MIC, standard agar-dilution assay; format: cell-based
Protocol: as §2

Escherichia coli TEM = test: MIC, standard agar-dilution assay; format: cell-based
In short: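 Antibacterial activity toward the gram-negative organism Escherichia coli was assessed by conventional agar dilution. The MIC, reported in ug/mL, is the minimum compound concentration on agar that prevents growth.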

[9] = test system: Staphylococcus aureus X1.1; test: MIC, standard agar-dilution assay; format: cell-based; conditions: Staphylococcus aureus, X1.1
In short: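 A standard agar-dilution assay was used to test compounds against the Staphylococcus aureus isolate X1.1. Bacterial growth on agar with different compound concentrations was assessed, and the minimum inhibitory concentration was recorded in ug/mL.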

[10] = test system: Streptococcus pyogenes C203; test: MIC, standard agar-dilution assay; format: cell-based; conditions: agar-dilution; Streptococcus pyogenes C203; read-out: MIC
Protocol: as §2

[11] = test system: Streptococcus pyogenes 9960; test: MIC, standard agar-dilution assay; format: cell-based
Protocol: as §2

[12] = test system: Klebsiella pneumoniae KAE; test: MIC, standard agar-dilution assay; format: cell-based; conditions: agar-dilution; Klebsiella pneumoniae KAE; read-out: MIC
In short: as §3

[13] = test system: Streptococcus pneumoniae Park I; test: MIC, standard agar-dilution assay; format: cell-based
Protocol: as §2

[14] = test system: Streptococcus Group D X66; test: MIC, standard agar-dilution assay; format: cell-based
Protocol: as §2

[15] = test system: Streptococcus pyogenes C203; test: Protection of mice experimentally infected with S. pyogenes C203; format: in vivo; conditions: mg/kg × 2, doses given 1 and 4 hours postinfection
Protocol: Some of the derivatives of this invention have shown in vivo antimicrobial activity against experimentally-induced infections in laboratory animals. When two doses of test compound were administered to mice experimentally infected with S. pyogenes C203, the activity observed was measured as an ED50 value [effective dose in mg/kg to protect 50% of the test animals: see Warren Wick, et al., J. Bacteriol. 81, 233-235 (1961)].

[16] = test system: Pasteurella hemolytica 23C; test: MIC, conventional broth-dilution microtiter test; format: cell-based
In short: as §3

[17] = test system: Pasteurella multocida 68C; test: MIC, conventional broth-dilution microtiter test; format: cell-based
In short: as §3

[18] = test system: Pasteurella hemolytica 22C; test: MIC, conventional broth-dilution microtiter test; format: cell-based; conditions: broth-dilution microtiter; Pasteurella hemolytica 22C; read-out: MIC
In short: as §3

Mycoplasma hyorhinis = test: MIC, conventional broth-dilution microtiter test; format: cell-based; conditions: broth-dilution microtiter; Mycoplasma hyorhinis; read-out: MIC
In short: (§4)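 Two formats were used. Broth dilution in microtiter plates served for Pasteurella and Mycoplasma, while agar dilution served for Klebsiella.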

Mycoplasma synoviae = test: MIC, conventional broth-dilution microtiter test; format: cell-based; conditions: Mycoplasmopsis synoviae; broth-dilution microtiter; Mycoplasma synoviae; read-out: MIC
In short: as §4

[19] = test system: Pasteurella multocida 22A; test: MIC, conventional broth-dilution microtiter test; format: cell-based
In short: as §3

Mycoplasma gallisepticum = test: MIC, conventional broth-dilution microtiter test; format: cell-based; conditions: Mycoplasmoides gallisepticum
In short: as §3

[20] = test system: Pasteurella hemolytica 41D; test: MIC, conventional broth-dilution microtiter test; format: cell-based
In short: as §3

[21] = test system: Mycoplasma gallisepticum 34159; test: MIC, conventional broth-dilution microtiter test; format: cell-based; conditions: Mycoplasmoides gallisepticum; broth-dilution microtiter; Mycoplasma gallisepticum 34159, Resistant strain; read-out: MIC
In short: as §3

[22] = test system: Pasteurella multocida 17E; test: MIC, conventional broth-dilution microtiter test; format: cell-based
In short: as §3

Streptococcus sp. 80 = test: MIC, conventional broth-dilution microtiter test; format: cell-based; conditions: broth-dilution microtiter; Streptococcus sp. 80; read-out: MIC
Protocol: as §2

[23] = test system: Pasteurella multocida 40G; test: MIC, conventional broth-dilution microtiter test; format: cell-based
In short: as §3

[24] = test system: Mycoplasma gallisepticum 41313; test: MIC, conventional broth-dilution microtiter test; format: cell-based; conditions: Mycoplasmoides gallisepticum; broth-dilution microtiter; Mycoplasma gallisepticum 41313, Resistant strain; read-out: MIC
In short: as §3

Staphylococcus aureus = test: MIC, conventional broth-dilution microtiter test; format: cell-based; conditions: broth-dilution microtiter, read-out: MIC
Protocol: as §2

[25] = test system: Pasteurella multocida 60A; test: MIC, conventional broth-dilution microtiter test; format: cell-based
In short: as §3

## CCC1OC(=O)CC(O)C(C)C(OC2OC(C)C(O)C(N(C)C)C2O)C(CCNCc2ccccc2)CC(C)C(=O)C=CC(C)=CC1CO (stereo not drawn) [Compound 4, 20-N-Benzylamino-20-deoxy-20-dihydro-OMT]
Pasteurella multocida
  Number of Deaths/Number Treated: 1/10
[1]
  MIC: 8 µg/mL (≈ 11.6 µM)
[2]
  MIC: 4 µg/mL (≈ 5.81 µM)
[3]
  MIC: 2 µg/mL (≈ 2.9 µM)
[4]; Haemophilus influenzae
  MIC: 2 µg/mL (≈ 2.9 µM)
[5]; Staphylococcus aureus, X400
  MIC: 32 µg/mL (≈ 46.5 µM)
[6]; Staphylococcus epidermidis, EPI2
  MIC: 32 µg/mL (≈ 46.5 µM)
Escherichia coli EC14; Escherichia coli, EC14
  MIC: 128 µg/mL (≈ 186 µM)
[7]; Klebsiella pneumoniae, X26
  MIC: 8 µg/mL (≈ 11.6 µM)
[8]; agar-dilution, Staphylococcus aureus V41, Penicillin-resistant strain, read-out: MIC
  MIC: 16 µg/mL (≈ 23.2 µM)
Escherichia coli TEM; Escherichia coli
  MIC: 8 µg/mL (≈ 11.6 µM)
[9]
  MIC: 8 µg/mL (≈ 11.6 µM)
[10]
  MIC: 4 µg/mL (≈ 5.81 µM)
[11]; agar-dilution, Streptococcus 9960, read-out: MIC
  MIC: 32 µg/mL (≈ 46.5 µM)
[12]
  MIC: > 128 µg/mL
[13]; Streptococcus pneumoniae
  MIC: 2 µg/mL (≈ 2.9 µM)
[14]
  MIC: 16 µg/mL (≈ 23.2 µM)
[15]; C203, mice, oral, read-out: ED50 Oral
  ED50: > 100 mg/kg
[15]; C203, sc, mice, subcutaneous, read-out: ED50 Subcutaneous
  ED50: 16.1 mg/kg
[16]; broth-dilution microtiter, Pasteurella hemolytica 23C, read-out: MIC
  MIC: 6.25 µg/mL (≈ 9.07 µM)
[17]; broth-dilution microtiter, Pasteurella multocida 68C, read-out: MIC
  MIC: 3.12 µg/mL (≈ 4.53 µM)
[18]
  MIC: 6.25 µg/mL (≈ 9.07 µM)
Mycoplasma hyorhinis
  MIC: 50 µg/mL (≈ 72.6 µM)
Mycoplasma synoviae
  MIC: 12.5 µg/mL (≈ 18.1 µM)
[19]; broth-dilution microtiter, Pasteurella multocida 22A, read-out: MIC
  MIC: 12.5 µg/mL (≈ 18.1 µM)
Mycoplasma gallisepticum; broth-dilution microtiter, Mycoplasma gallisepticum, read-out: MIC
  MIC: 3.12 µg/mL (≈ 4.53 µM)
[20]; broth-dilution microtiter, Pasteurella hemolytica 41D, read-out: MIC
  MIC: 6.25 µg/mL (≈ 9.07 µM)
[21]
  MIC: 50 µg/mL (≈ 72.6 µM)
[22]; broth-dilution microtiter, Pasteurella multocida 17E, Bovine isolate, read-out: MIC
  MIC: 3.12 µg/mL (≈ 4.53 µM)
Streptococcus sp. 80
  MIC: 6.25 µg/mL (≈ 9.07 µM)
[23]; broth-dilution microtiter, Pasteurella multocida 40G, read-out: MIC
  MIC: 6.25 µg/mL (≈ 9.07 µM)
[24]
  MIC: 50 µg/mL (≈ 72.6 µM)
Staphylococcus aureus
  MIC: 12.5 µg/mL (≈ 18.1 µM)
[25]; broth-dilution microtiter, Pasteurella multocida 60A, Avian isolate, read-out: MIC
  MIC: 3.12 µg/mL (≈ 4.53 µM)

## CCC1OC(=O)CC(O)C(C)C(OC2OC(C)C(O)C(N(C)C)C2O)C(CCOc2ccccc2)CC(C)C(=O)C=CC(C)=CC1CN1CCCCCCC1 (stereo not drawn) [Compound 34, 20-O-Phenyl-20-dihydro-23-Octahydroazocin-1-yl-OMT]
Pasteurella multocida
  Number of Deaths/Number Treated: 10/10
[1]
  MIC: 0.25 µg/mL (≈ 0.324 µM)
[2]
  MIC: 0.25 µg/mL (≈ 0.324 µM)
[3]
  MIC: 8 µg/mL (≈ 10.4 µM)
[4]; agar-dilution, Haemophilus influenzae C.L., Ampicillin-sensitive strain, read-out: MIC
  MIC: 4 µg/mL (≈ 5.19 µM)
[5]; agar-dilution, Staphylococcus aureus X400, Methicillin-resistant strain, read-out: MIC
  MIC: 0.5 µg/mL (≈ 0.648 µM)
[6]; agar-dilution, Staphylococcus epidermidis EPI2, read-out: MIC
  MIC: 0.12 µg/mL (≈ 0.156 µM)
Escherichia coli EC14; agar-dilution, Escherichia coli EC14, read-out: MIC
  MIC: > 128 µg/mL
[7]; agar-dilution, Klebsiella pneumoniae X26, read-out: MIC
  MIC: 8 µg/mL (≈ 10.4 µM)
[8]; Staphylococcus aureus, V41
  MIC: 0.25 µg/mL (≈ 0.324 µM)
Escherichia coli TEM; agar-dilution, Escherichia coli TEM, read-out: MIC
  MIC: 8 µg/mL (≈ 10.4 µM)
[9]
  MIC: 0.25 µg/mL (≈ 0.324 µM)
[10]
  MIC: 0.12 µg/mL (≈ 0.156 µM)
[11]; 9960
  MIC: 2 µg/mL (≈ 2.59 µM)
[12]
  MIC: > 128 µg/mL
[13]; agar-dilution, Streptococcus pneumoniae Park I, read-out: MIC
  MIC: 0.12 µg/mL (≈ 0.156 µM)
[14]
  MIC: 2 µg/mL (≈ 2.59 µM)
[16]; Pasteurella, 23C
  MIC: 3.12 µg/mL (≈ 4.05 µM)
[17]; Pasteurella multocida, 68C
  MIC: 3.12 µg/mL (≈ 4.05 µM)
[18]
  MIC: 1.56 µg/mL (≈ 2.02 µM)
Mycoplasma hyorhinis
  MIC: 50 µg/mL (≈ 64.8 µM)
Mycoplasma synoviae
  MIC: 12.5 µg/mL (≈ 16.2 µM)
[19]; Pasteurella multocida, 22A
  MIC: 6.25 µg/mL (≈ 8.11 µM)
Mycoplasma gallisepticum
  MIC: 0.097 µg/mL (≈ 0.126 µM)
[20]; Pasteurella, 41D
  MIC: 3.12 µg/mL (≈ 4.05 µM)
[21]
  MIC: 50 µg/mL (≈ 64.8 µM)
[22]; Pasteurella multocida, 17E
  MIC: 3.12 µg/mL (≈ 4.05 µM)
Streptococcus sp. 80
  MIC: 0.78 µg/mL (≈ 1.01 µM)
[23]; Pasteurella multocida, 40G
  MIC: 3.12 µg/mL (≈ 4.05 µM)
[24]
  MIC: 25 µg/mL (≈ 32.4 µM)
Staphylococcus aureus
  MIC: 0.39 µg/mL (≈ 0.506 µM)
[25]; Pasteurella multocida, 60A
  MIC: 6.25 µg/mL (≈ 8.11 µM)
